Test results published in paper PMC11059152, “Discovery of an Aldo-Keto reductase 1C3 (AKR1C3) degrader” (Communications Chemistry, 2024).
Positions count from the first letter of the chain named.

How the values were obtained:
Type in all cases: biochemical
[1] = biological target: T1, AKR1C1 (Homo sapiens, UniProt Q04828); assay: specific activity of purified enzyme, absorbance at […] nm
T1 construct: homogeneous recombinant enzyme
T1 sequence (Q04828 1-323): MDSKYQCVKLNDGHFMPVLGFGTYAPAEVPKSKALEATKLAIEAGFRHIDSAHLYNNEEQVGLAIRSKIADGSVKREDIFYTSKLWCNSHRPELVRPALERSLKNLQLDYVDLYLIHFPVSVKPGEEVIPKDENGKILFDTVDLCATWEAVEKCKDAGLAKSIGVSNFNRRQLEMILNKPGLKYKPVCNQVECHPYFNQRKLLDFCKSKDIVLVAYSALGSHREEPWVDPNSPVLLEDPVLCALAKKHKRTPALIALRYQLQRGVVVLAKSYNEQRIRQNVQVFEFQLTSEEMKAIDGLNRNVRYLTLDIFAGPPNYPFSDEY

[2] = biological target: T2, AKR1C2 (Homo sapiens, UniProt P52895); assay: oxidation by purified enzyme, absorbance at […] nm; Km; details: cited from earlier work
T2 construct: homogeneous recombinant enzyme
T2 sequence (P52895 1-323): T1 sequence (Q04828 1-323) with T38V, R47H, L54V, C87S, V151M, R170H, Q172L

[3] = biological target: T3, AKR1C3 (Homo sapiens, UniProt P42330); assay: inhibition of NADP+-dependent S-tetralol oxidation by recombinant enzyme
T3 construct: homogeneous recombinant enzyme
T3 sequence (P42330 1-323): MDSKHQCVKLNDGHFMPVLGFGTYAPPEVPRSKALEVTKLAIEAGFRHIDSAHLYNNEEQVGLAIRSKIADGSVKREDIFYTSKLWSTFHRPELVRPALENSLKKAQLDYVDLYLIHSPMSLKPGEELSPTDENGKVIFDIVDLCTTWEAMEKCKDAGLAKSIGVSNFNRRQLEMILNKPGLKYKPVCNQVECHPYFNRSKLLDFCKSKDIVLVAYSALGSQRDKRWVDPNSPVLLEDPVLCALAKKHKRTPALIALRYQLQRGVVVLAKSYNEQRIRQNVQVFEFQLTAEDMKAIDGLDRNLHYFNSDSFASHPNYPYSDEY

Row | specific activity of purified enzyme, absorbance at 340 nm [1] [µmol/min/mg] | IC50 [3] [nM] | Structure (SMILES) | Km [2] [µM]
1 | 1.4 |  | O[C@H]1CCCc2ccccc21 [S-tetralol, (S)-(+)-1,2,3,4-tetrahydro-1-naphthol] | 15
2 |  | 62 ± 1 | C#CCOc1ccc(CNC(=O)c2cc(/C=C/C(=O)O)cc(-c3ccccc3)c2)cc1 [compound 4, warhead 4] | 
3 |  | 77 ± 2 | O=C(O)/C=C/c1cc(C(=O)NCc2ccc(OCc3cn(CCOCCOCC(=O)Nc4cccc5c4CN(C4CCC(=O)NC4=O)C5=O)nn3)cc2)cc(-c2ccccc2)c1 (stereo not shown) [compound 5, (E)-3-(5-((4-((1-(2-(2-(2-((2-(2,6-dioxopiperidin-3-yl)-1-oxoisoindolin-4-yl)amino)-2-oxoethoxy)ethoxy)ethyl)-1H-1,2,3-triazol-4-yl)methoxy)benzyl)carbamoyl)-[1,1’-biphenyl]-3-yl)acrylic acid] | 
